Data: patent US11298367B2, “Prodrugs of substituted triazole derivatives and uses thereof” (Bayer Aktiengesellschaft, priority 2017, dated 2022)

Experiments:
human V1a receptor = molecular target: T1, human V1a receptor (Homo sapiens, UniProt P37288); assay: Cellular in vitro assay for vasopressin receptor activity (V1a, aequorin luminescence); format: cell-based; conditions: for IC50: CHO cell line with human V1a receptor, [Arg8]-vasopressin at EC50, values are for the prodrug as such, read-out: IC50 hV1a; for ratio IC50 hV2/hV1a: selectivity ratio hV2/hV1a
T1 construct: expressed in transfected cells; host or cells: CHO K1 (Chinese hamster ovary), also stably transfected with a modified aequorin
T1 sequence (P37288 whole entry): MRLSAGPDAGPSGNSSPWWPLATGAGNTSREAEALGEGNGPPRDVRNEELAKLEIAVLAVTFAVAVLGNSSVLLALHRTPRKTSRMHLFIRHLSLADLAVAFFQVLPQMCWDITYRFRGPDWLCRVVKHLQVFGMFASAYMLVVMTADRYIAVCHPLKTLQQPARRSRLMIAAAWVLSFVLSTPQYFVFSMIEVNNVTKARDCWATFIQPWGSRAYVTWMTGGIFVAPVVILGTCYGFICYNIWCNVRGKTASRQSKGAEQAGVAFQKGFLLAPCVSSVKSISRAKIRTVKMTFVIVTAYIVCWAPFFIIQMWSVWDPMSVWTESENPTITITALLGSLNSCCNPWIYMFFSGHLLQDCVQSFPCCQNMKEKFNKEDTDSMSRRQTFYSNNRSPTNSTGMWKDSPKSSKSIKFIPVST
Experimental: (§1) B-1. Cellular In Vitro Assay for Determining Vasopressin Receptor Activity
(§2) The identification of agonists and antagonists of the V1a and V2 vasopressin receptors from humans, rats and dogs as well as the quantification of the activity of the compounds of the invention is carried out using recombinant cell lines. These cell lines originally derive from a hamster's ovary epithelial cell (Chinese Hamster Ovary, CHO K1, ATCC: American Type Culture Collection, Manassas, Va. 20108, USA). The test cell lines constitutively express the human, rat or dog V1a or V2 receptors. In case of the Gaq-coupled V1a receptors, cells are also stably transfected with a modified form of the calcium-sensitive photoproteins aequorin (human and rat V1a) or obelin (dog V1a), which, after reconstitution with the cofactor coelenterazine, emit light when there are increases in free calcium concentrations [Rizzuto R, Simpson A W, Brini M, Pozzan T, Nature 358, 325-327 (1992); Illarionov B A, Bondar V S, Illarionova V A, Vysotski E S, Gene 153 (2), 273-274 (1995)]. The resulting vasopressin receptor cells react to stimulation of the recombinantly expressed Via receptors by intracellular release of calcium ions, which can be quantified by the resulting photoprotein luminescence. The Gs-coupled V2 receptors are stably transfected into cell lines expressing the gene for firefly luciferase under control of a CRE-responsible promoter. Activation of V2 receptors induces the activation of the CRE-responsive promoter via cAMP increase, thereby inducing the expression of firefly luciferase. The light emitted by photoproteins of V1a cell lines as well as the light emitted by firefly luciferase of V2 cell lines corresponds to the activation or inhibition of the respective vasopressin receptor. The bioluminescence of the cell lines is detected using a suitable luminometer [Milligan G, Marshall F, Rees S, Trends in Pharmacological Sciences 17, 235-237 (1996)].
Vasopressin V1a Receptor Cell Lines:
On the day before the assay, the cells are plated out in culture medium (DMEM/F12, 2% FCS, 2 mM glutamine, 10 mM HEPES, 5 μg/ml coelenterazine) in 384-well microtiter plates and kept in a cell incubator (96% humidity, 5% v/v CO2, 37C). On the day of the assay, test compounds in various concentrations are placed for 10 minutes in the wells of the microtiter plate before the agonist [Arg^8]-vasopressin at EC50 concentration is added. The resulting light signal is measured immediately in a luminometer.
(§3) Table 1A below lists individual IC50 values for the compounds of the invention (including racemic mixtures as well as separated enantiomers) that were obtained from cell lines transfected with the human V1a or V2 receptor. This means these IC50 values are the values for the prodrug and not for the underlying respective drug as the prodrug is mainly stable under the assay conditions.

human V2 receptor = molecular target: T2, human V2 receptor (Homo sapiens, UniProt P30518); assay: Cellular in vitro assay for vasopressin receptor activity (V2, CRE-luciferase); format: cell-based; conditions: CHO cell line with human V2 receptor, [Arg8]-vasopressin at EC50; values are for the prodrug as such; read-out: IC50 hV2
T2 construct: expressed in transfected cells; host or cells: CHO K1 cells expressing firefly luciferase under a CRE-responsive promoter
T2 sequence (P30518 whole entry): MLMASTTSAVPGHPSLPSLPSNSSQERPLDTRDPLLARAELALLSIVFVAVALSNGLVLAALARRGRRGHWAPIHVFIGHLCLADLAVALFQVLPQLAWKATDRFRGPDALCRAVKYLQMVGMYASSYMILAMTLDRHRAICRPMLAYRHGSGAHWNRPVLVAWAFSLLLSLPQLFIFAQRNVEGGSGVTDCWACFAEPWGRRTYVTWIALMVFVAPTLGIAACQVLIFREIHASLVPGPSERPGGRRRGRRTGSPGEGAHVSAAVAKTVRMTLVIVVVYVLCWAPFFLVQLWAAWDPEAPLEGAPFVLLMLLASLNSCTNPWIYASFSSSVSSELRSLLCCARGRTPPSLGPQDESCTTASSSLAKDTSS
Experimental: as §1, §2
Vasopressin V2 Receptor Cell Lines:
On the day before the assay, the cells are plated out in culture medium (DMEM/F12, 2% FCS, 2 mM glutamine, 10 mM HEPES) in 384-well microtiter plates and kept in a cell incubator (96% humidity, 5% v/v CO2, 37C). On the day of the assay, test compounds in various concentrations and the agonist [Arg^8]-vasopressin at EC50 concentration are added together to the wells, and plates are incubated for 3 hours in a cell incubator. Upon addition of the cell lysis reagent Triton™ and the substrate luciferin, luminescence of firefly luciferase is measured in a luminometer.
as §3

Compound | IC50 (human V1a receptor) | ratio IC50 hV2/hV1a (human V1a receptor; Phosphate) | IC50 (human V2 receptor) | ratio IC50 hV2/hV1a (human V1a receptor)
NC(=O)c1nc(Cn2nc(-c3ccc(Cl)cc3)n(C[C@H](OP(=O)([O-])O)C(F)(F)F)c2=O)nn1-c1ccccc1C(F)(F)F.[Na+] [Example 14, Sodium (2S)-3-[1-({5-carbamoyl-1-[2-(trifluoromethyl)phenyl]-1H-1,2,4-triazol-3-yl}methyl)-3-(4-chlorophenyl)-5-oxo-1,5-dihydro-4H-1,2,4-triazol-4-yl]-1,1,1-trifluoropropan-2-yl Hydrogen Phosphate] | 19 nM | 1.0 | 18.5 nM | –
NC(=O)c1nc(Cn2nc(-c3ccc(Cl)cc3)n(C[C@H](OP(=O)([O-])[O-])C(F)(F)F)c2=O)nn1-c1ccccc1C(F)(F)F.[Mg+2] [Example 15, Magnesium (2S)-3-[1-({5-carbamoyl-1-[2-(trifluoromethyl)phenyl]-1H-1,2,4-triazol-3-yl}methyl)-3-(4-chlorophenyl)-5-oxo-1,5-dihydro-4H-1,2,4-triazol-4-yl]-1,1,1-trifluoropropan-2-yl Phosphate] | 19.5 nM | – | 21 nM | 1.1
NC(=O)c1nc(Cn2nc(-c3ccc(Cl)cc3)n(C[C@H](OP(=O)([O-])[O-])C(F)(F)F)c2=O)nn1-c1ccccc1C(F)(F)F.[Ca+2] [Example 16, Calcium (2S)-3-[1-({5-carbamoyl-1-[2-(trifluoromethyl)phenyl]-1H-1,2,4-triazol-3-yl}methyl)-3-(4-chlorophenyl)-5-oxo-1,5-dihydro-4H-1,2,4-triazol-4-yl]-1,1,1-trifluoropropan-2-yl Phosphate] | 29 nM | – | 30.5 nM | 1.1
NC(=O)c1nc(Cn2nc(-c3ccc(Cl)cc3)n(C[C@H](OP(=O)([O-])O)C(F)(F)F)c2=O)nn1-c1ncccc1Cl.[K+] [Example 18, Potassium (2S)-3-[1-{[5-carbamoyl-1-(3-chloropyridin-2-yl)-1H-1,2,4-triazol-3-yl]methyl}-3-(4-chlorophenyl)-5-oxo-1,5-dihydro-4H-1,2,4-triazol-4-yl]-1,1,1-trifluoropropan-2-yl Hydrogen Phosphate] | 33.5 nM | 2.5 | 84 nM | –
NC(=O)c1nc(Cn2nc(-c3ccc(Cl)cc3)n(C[C@H](OP(=O)([O-])O)C(F)(F)F)c2=O)nn1-c1ncccc1Cl.[K+] [Example 19, Potassium (2S)-3-[1-{[5-carbamoyl-1-(3-chloropyridin-2-yl)-1H-1,2,4-triazol-3-yl]methyl}-3-(4-chlorophenyl)-5-oxo-1,5-dihydro-4H-1,2,4-triazol-4-yl]-1,1,1-trifluoropropan-2-yl Hydrogen Phosphate] | 24 nM | 2.1 | 51 nM | –
NC(=O)c1nc(Cn2nc(-c3ccc(Cl)cc3)n(C[C@H](OP(=O)([O-])O)C(F)(F)F)c2=O)nn1-c1ncccc1Cl.[Na+] [Example 21, Sodium (2S)-3-[1-{[5-carbamoyl-1-(3-chloropyridin-2-yl)-1H-1,2,4-triazol-3-yl]methyl}-3-(4-chlorophenyl)-5-oxo-1,5-dihydro-4H-1,2,4-triazol-4-yl]-1,1,1-trifluoropropan-2-yl Hydrogen Phosphate] | 21 nM | 1.8 | 38 nM | –
NC(=O)c1nc(Cn2nc(-c3ccc(Cl)cc3)n(C[C@H](OP(=O)([O-])[O-])C(F)(F)F)c2=O)nn1-c1ncccc1Cl.[Ca+2] [Example 23, Calcium (2S)-3-[1-{[5-carbamoyl-1-(3-chloropyridin-2-yl)-1H-1,2,4-triazol-3-yl]methyl}-3-(4-chlorophenyl)-5-oxo-1,5-dihydro-4H-1,2,4-triazol-4-yl]-1,1,1-trifluoropropan-2-yl Phosphate] | 27 nM | – | 73.5 nM | 2.7
